Measurements reported in US9980940B2, “Composition for the treatment of neuropathies and/or neuropathic pain” (Kolinpharma S.p.A., priority 2014, dated 2018).
Entries after “also recorded” stand apart in the source; their conditions may differ. Like-named read-outs stand apart in the source and are kept apart here. Values belong to the compound of their own block, whether it stands above or below them.

Columns and labels:
THP-1 human monocytes = conditions: 24 h
Source text: (§1) The MTT assay is a colorimetric cytotoxicity assay that makes it possible to test cellular proliferation and vitality based on the efficiency of mitochondrial respiration. MTT (3-(4,5-dimethylthiazol-2-yl)-2,5-diphenyl tetrazolium bromide) is a tetrazolium salt that is reduced by the highly reducing environment in the mitochondria of living cells by the action of mitochondrial dehydrogenase. Reduction of MTT causes formation of crystals of formazan that give the characteristic purple coloration to the mitochondria of living cells. […] Thus, although it is a test that evaluates cellular respiration, the MTT assay is considered to be an excellent method for determining cellular vitality.
(§2) As preparation for the test, the cells were sown uniformly in 96-well plates at a density of 5×10^4 cells per well and incubated at 37° C., with 5% CO2, and simultaneously, the cells were treated following serial dilutions (1:2) in order to identify the maximum non-cytotoxic concentration for each component.
(§3) The treatment was carried out for 24 hours. At the end, after brief washing in PBS, 20 μl of MTT (stock 5 mg/ml) in PBS was added to the THP-1 cells for 2 hours at 37° C. At the end of the incubation time, after removal from the medium and washing in PBS, 100 μl of DMSO was added for solubilization of the formazan crystals. Spectrophotometric reading was performed with a microplate reader (Tecan Sunrise) at a wavelength of 570 nm. The cellular vitality was calculated by measuring the optical density of the concentrations tested relative to the control (untreated cells).
as §1, with “leads to” for “causes”, “impart” for “give”, “regarded as” for “considered to be”
as §2, with “CO2” for “CO2,”, “at the same time” for “simultaneously,”, “with” for “following”
as §3, with “to dissolve” for “for solubilization of”

TNFα [1] = experiment: ELISA of TNFα after LPS, Example 3; assay type: cell-based, human
Experimental: (§4) Possible anti-inflammatory activity of the individual components and synergy between them in THP-1 cells was evaluated after 24 hours of treatment and stimulation with a known pro-inflammatory agent (LPS), measuring expression of IL-1β and TNFα using an ELISA kit (Thermo Fisher Scientific, Inc.).
(§5) As preparation for the test, the THP-1 cells were sown uniformly in a 96-well plate at a density of 5×10^4 cells/well and treated with the maximum concentrations found to be non-cytotoxic in the MTT assay; untreated cells were used as negative control. Treatment was carried out at 37° C. at 5% CO2 for 20 h; then the sample was stimulated with LPS (component of the bacterial outer membrane, considered to be an inflammatory agent) for 4 hours.
(§6) At the end of the treatment, the supernatants were collected and used for coating a pretreated ELISA plate, supplied with the kit.
(§7) For analysis of the expression of both markers under examination (IL-1β and TNFα), a special kit is used that is based on the “sandwich” ELISA system in which a 96-well plate is coated with a monoclonal antibody specific to the particular cytokine.
The standards, prepared on the basis of the instructions in the protocol and used for constructing the calibration curve, and the samples are added to the wells and the cytokine of interest binds the capture antibody immobilized on the bottom of the well. […] Addition of a solution of sulphuric acid turns the colour of the solution from blue to yellow, blocking the reaction and allowing accurate reading of the absorbance of the samples at 450 nm.
The absorbance was then read at 450 and 550 nm using a microplate reader (Tecan Sunrise). The values obtained from the reading at 550 nm were subtracted from those at 450 nm to correct the optical imperfections of the microplate.
The possible anti-inflammatory action of the individual components of Xinepa and the possible synergy were evaluated by measuring the levels of TNFα following stimulation with LPS. […]

[2] = test system: ROS produced by the THP-1 cells; experiment: ROS assay (H2DCF-DA, flow cytometry), Example 2; assay type: cell-based, human; conditions: 24 h treatment then H2O2 100 μM 2 h; concentrations indicated in Table 7
Experimental: The antioxidant activity of the individual components and synergy between them was evaluated as efficiency of neutralization of the ROS produced by the THP-1 cells after application of an oxidizing agent: hydrogen peroxide (H2O2) at a concentration of 100 μM. The ROS were measured by the method described in Boulton S., Anderson A., Swalwell J., et al., 2011 Implications of using the fluorescent probes, dihydrorhodamine 123 and 2′,7′-dichlorodihydrofluorescein diacetate, for the detection of UV-A induced reactive oxygen species. […] The DCF produced is then quantified by reading with a flow cytometer and is proportional to the quantity of ROS present in the sample under examination. […]
After removal of the H2DCF-DA solution, the cells were washed, collected and the fluorescence of the DCF was measured by analysis with a Coulter Epics XL flow cytofluorimeter. At least ten thousand cells were analysed for each sample and the mean fluorescence intensity was quantified by the XL2 software of the instrument.
The parameter considered is MFI, mean fluorescence intensity, i.e. the geometric mean of the fluorescence intensity of the cells in which H2DCF-DA has been transformed into the fluorescein-treated DCF form, which is proportional to the amount of ROS per sample. […]

IL-1β [3] = experiment: ELISA of IL-1β after LPS, Example 3; assay type: cell-based, human
Experimental: as §4, §5, §6, §7
The standards, prepared on the basis of the instructions in the protocol and used for constructing the calibration curve, and the samples are added to the wells and the cytokine of interest binds the capture antibody immobilized on the bottom of the well. Next, the biotinylated anti-cytokine antibody is added to the wells so that the biotinylated antibody-antigen-antibody “sandwich” is formed. […] Addition of a solution of sulphuric acid turns the colour of the solution from blue to yellow, blocking the reaction and allowing accurate reading of the absorbance of the samples at 450 nm.
The absorbance was then read at 450 and 550 nm using a microplate reader (Tecan Sunrise). The values obtained from the reading at 550 nm were subtracted from those at 450 nm to correct the optical imperfections of the microplate. […]

[4] = Solubility / dissolution of Xinepa and its ingredients
IL-1β [5] = experiment: ELISA assay (Assay 1a), release of IL-1β; assay type: cell-based, human; conditions: positive controls; LPS 1 μg/ml 2 h
TNFα [6] = experiment: ELISA assay (Assay 1a), release of TNFα; assay type: cell-based, human; conditions: positive controls; LPS 1 μg/ml 2 h
THP-1 cells = experiment: MTT assay (Assay 0), cellular vitality; assay type: cell-based, human; conditions: positive controls at 100 μM
Experimental: The cells were kept in an incubator at 37° C. and 5% CO2 and sown every 3-4 days at a density of about 5×10^5 cells/ml.
This colorimetric assay is based on the transformation of tetrazolium salt MTT (yellow) to formazan (violet), by the reductase succinate-tetrazolium system, which belongs to the respiratory chain of the mitochondria and is only active in metabolically active cells. Briefly, the cells grown in a 96-well plate were incubated with the solution of MTT for 4 hours. […] The absorbance measured correlates directly with the number of live cells.
To exclude a possible toxic effect attributable to the incubation protocol selected, cellular vitality was quantified by the MTT assay.

[7] = test system: reactive oxygen species (ROS) in THP-1 cells; experiment: Intracellular levels of ROS (Assay 2), CellROX Deep Red; assay type: cell-based, human; conditions: positive control; 100 mM H2O2 2 h; not significantly different from its vehicle control
Experimental: The operating principle of the probe is based on the fact that it is not fluorescent in the reduced state, whereas following oxidation it develops a fluorescent signal with excitation peak at 640 nm and emission peak at 665 nm. Briefly, at the end of the period of stimulation with H2O2, the cells were incubated with CellROX® Deep Red Reagent at a final concentration of 5 μM in the medium at 37° C. for 30 min. The nuclei were labelled with Hoechst33342 and the fluorescences of both channels (CellROX® Deep Red and DAPI) were read on the GloMax plate fluorometer (Promega Italy). The fluorescence signals relating to the ROS were normalized for the signal of Hoechst33342 to cancel the variability in the fluorescence signal read due to the number of cells present in each well.
The same plates were then also acquired in the confocal microscope for the purpose of obtaining representative images relating to quantifications of the various treatments.

THP-1 cell line = conditions: curcumin (Sigma, commercial); Hsu et al. 2008; cited from earlier work
[8] = 24-hour treatment and stimulation with LPS
[9] = relative to stimulated untreated cells (Ctrl + LPS = 100)

Compound: CC(=O)O[C@H](CC(=O)[O-])C[N+](C)(C)C [Component C]
Cellular vitality (%) (THP-1 human monocytes; N-Acetyl-L-carnitine 0.25 mg/ml): 102.221% | Cellular vitality (%) (THP-1 human monocytes; N-Acetyl-L-carnitine 0.5 mg/ml): 97.615% | Cellular vitality (%) (THP-1 human monocytes; N-Acetyl-L-carnitine 1 mg/ml): 90.355% | Cellular vitality (%) (THP-1 human monocytes; N-Acetyl-L-carnitine 2 mg/ml): 91.422% | Cellular vitality (%) (THP-1 human monocytes; N-Acetyl-L-carnitine 4 mg/ml): 60.848% | Maximum non-cytotoxic concentration (THP-1 human monocytes; components A, B, C tested individually (lipoic acid, vitamin C, vitamin E acetate together as component B), mortality not greater than 30%): 2 mg/mL | Non-cytotoxic concentration (THP-1 human monocytes; each component when tested together (A + B + C)): 0.01 mg/mL | levels of TNFα vs stimulated control (TNFα [1]; [8]): levels lower than the stimulated control | TNFα (TNFα [1]; 24 h treatment at non-cytotoxic concentrations, LPS 4 h, Ctrl + LPS 424.12): 386.98 pg/mL | TNFα (%) (TNFα [1]; [9]): 91.24% | levels of ROS [2]: comparable to those of the positive control | levels of IL-1β vs stimulated control (IL-1β [3]; [8]): increase | IL-1β (IL-1β [3]; 24 h treatment at non-cytotoxic concentrations incl. LPS 4 h, Ctrl + LPS 4.84): 4.98 pg/mL | IL-1β (%) (IL-1β [3]; [9]): 102.91% | dissolution in complete medium ([4]; RPMI medium with 10% FBS, L-glutamine 2 mM and antibiotics): did not cause problems in dissolution; also recorded: did not cause problems of dissolution

Compound: CS(=O)(=O)Nc1ccc([N+](=O)[O-])cc1Oc1ccccc1 [nimesulide]
release of IL-1β relative to control (IL-1β [5]): effective in reducing the release of IL-1β | release of TNFα relative to control (TNFα [6]): showed anti-inflammatory action | toxicity on the cells (MTT) (THP-1 cells): did not identify any effect of toxicity

Compound: tocopherol [vitamin E]
antioxidant action (ROS levels) [7]: partial antioxidant action

Compound: COc1cc(/C=C/C(=O)CC(=O)/C=C/c2ccc(O)c(OC)c2)ccc1O [curcumin, (1E,6E)-1,7-bis(4-hydroxy-3-methoxyphenyl)-hepta-1,6-diene-3,5-dione]
non-cytotoxic concentration found for curcumin (THP-1 cell line): 10 µM

solubility of individual ingredients ([4]; water vs alcohols or organic solvents): soluble in water but not in alcohols
Compound: Cc1cc2nc3c(=O)[nH]c(=O)nc-3n(C[C@H](O)[C@H](O)[C@H](O)CO)c2cc1C [vitamin B2, riboflavin]

Compound: CC(C)Cc1ccc(C(C)C(=O)O)cc1 (stereo not shown) [ibuprofen]
release of IL-1β relative to control (IL-1β [5]): did not have any effect | release of TNFα relative to control (TNFα [6]): did not cause any reduction | toxicity on the cells (MTT) (THP-1 cells): did not identify any effect of toxicity

Compound: O=C(O)CCCCC1CCSS1 (stereo not drawn) [Lipoic acid, Alpha-lipoic acid]
Maximum non-cytotoxic concentration (THP-1 human monocytes; human): 0.3750 mg/mL
